Test results: PubChem BioAssay AID1963984 (Molecular Pharmacology Branch, DTP, NCI, 2024)

Test system: 233499-124-R-J3-PDC spheroids with HUVEC/MSC, viability
Assay: Anticancer human tumor 233499-124-R-J3-PDC patient-derived colon adenocarcinoma cell line growth inhibition [PI3K]
Settings: for IC50: curve of first compound; for viability, T/C: stronger effect = lower value; active = viability on the fitted dose curve at most 10% of control; inactive = the rest
Outline: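 Three cell types, namely tumor cells, endothelial cells and mesenchymal stem cells, formed each spheroid. Combinations with four PI3K inhibitors were screened at clinically achievable concentrations decreasing by half-log, and spheroid viability was recorded.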

[1] = second compound 0.0316 µM, first compound 0.0316 µM
[2] = second compound 0.0316 µM, first compound 0.1 µM
[3] = second compound 0.0316 µM, first compound 0.316 µM
[4] = second compound 0.0316 µM, first compound 1 µM
[5] = second compound 0.0316 µM, first compound 3.16 µM
[6] = second compound 0.0316 µM, first compound 10 µM
[7] = second compound 0.1 µM, first compound 0.0316 µM
[8] = second compound 0.1 µM, first compound 0.1 µM
[9] = second compound 0.1 µM, first compound 0.316 µM
[10] = second compound 0.1 µM, first compound 1 µM
[11] = second compound 0.1 µM, first compound 3.16 µM
[12] = second compound 0.1 µM, first compound 10 µM
[13] = second compound 0.316 µM, first compound 0.0316 µM
[14] = second compound 0.316 µM, first compound 0.1 µM
[15] = second compound 0.316 µM, first compound 0.316 µM
[16] = second compound 0.316 µM, first compound 1 µM
[17] = second compound 0.316 µM, first compound 3.16 µM
[18] = second compound 0.316 µM, first compound 10 µM
[19] = second compound 1 µM, first compound 0.0316 µM
[20] = second compound 1 µM, first compound 0.1 µM
[21] = second compound 1 µM, first compound 0.316 µM
[22] = second compound 1 µM, first compound 1 µM
[23] = second compound 1 µM, first compound 3.16 µM
[24] = second compound 1 µM, first compound 10 µM
[25] = second compound 3.16 µM, first compound 0.0316 µM
[26] = second compound 3.16 µM, first compound 0.1 µM
[27] = second compound 3.16 µM, first compound 0.316 µM
[28] = second compound 3.16 µM, first compound 1 µM
[29] = second compound 3.16 µM, first compound 3.16 µM
[30] = second compound 3.16 µM, first compound 10 µM
[31] = second compound 10 µM, first compound 0.0316 µM
[32] = second compound 10 µM, first compound 0.1 µM
[33] = second compound 10 µM, first compound 0.316 µM
[34] = second compound 10 µM, first compound 1 µM
[35] = second compound 10 µM, first compound 3.16 µM
[36] = second compound 10 µM, first compound 10 µM
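Note: spheroids exposed to agents for seven days before readout.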
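Throughout, for viability, T/C: percent viability relative to DMSO vehicle control taken as 100%.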

CC1(C)CCC(Nc2ncc(C(F)(F)F)c(-c3c[nH]c4c(P(C)(C)=O)c(C#N)ccc34)n2)CN1 (stereo unspecified) + Cc1nc(NC(=O)N2CCCC2C(N)=O)sc1-c1ccnc(C(C)(C)C(F)(F)F)c1
active: viability, T/C [12] 2.83% | viability, T/C [30] 0.85% | viability, T/C [36] 0.57%
32.6 nM: IC50 (second compound 0.1 µM)
62.3 nM: IC50 (second compound 1 µM)
66.4 nM: IC50 (second compound 0.0316 µM)
< 31.6 nM: IC50 (second compound 3.16 µM) | IC50 (second compound 10 µM)
inactive: viability, T/C [1] 65.2% | viability, T/C [2] 32% | viability, T/C [3] 32.9% | viability, T/C [4] 34.6% | viability, T/C [5] 25.1% | viability, T/C [6] 6.03% | viability, T/C [7] 51.6% | viability, T/C [8] 41.4% | viability, T/C [9] 29.3% | viability, T/C [10] 25.1% | viability, T/C [11] 19.8% | viability, T/C [13] 54.8% | viability, T/C [14] 76.9% | viability, T/C [15] 23.8% | viability, T/C [16] 31.1% | viability, T/C [17] 16.6% | viability, T/C [18] 3.57% | viability, T/C [19] 69% | viability, T/C [20] 34.2% | viability, T/C [21] 24% | viability, T/C [22] 21.9% | viability, T/C [23] 29.1% | viability, T/C [24] 2.22% | viability, T/C [25] 52.1% | viability, T/C [26] 34.9% | viability, T/C [27] 31% | viability, T/C [28] 18.4% | viability, T/C [29] 15.9% | viability, T/C [31] 16.1% | viability, T/C [32] 16.2% | viability, T/C [33] 25.9% | viability, T/C [34] 27.1% | viability, T/C [35] 10.1%
154 nM: IC50 (second compound 0.316 µM)

Cn1ncnc1[C@H]1c2n[nH]c(=O)c3cc(F)cc(c23)N[C@@H]1c1ccc(F)cc1 + CC(Nc1ncnc2nc[nH]c12)c1cc2cccc(Cl)c2c(=O)n1-c1ccccc1
> 100 nM: IC50 (second compound 0.0316 µM) | IC50 (second compound 0.1 µM) | IC50 (second compound 0.316 µM) | IC50 (second compound 1 µM) | IC50 (second compound 3.16 µM) | IC50 (second compound 10 µM)
inactive: viability, T/C (second compound 0.0316 µM, first compound 0.000316 µM) 90.9% | viability, T/C (second compound 0.0316 µM, first compound 0.001 µM) 82% | viability, T/C (second compound 0.0316 µM, first compound 0.00316 µM) 84.9% | viability, T/C (second compound 0.0316 µM, first compound 0.01 µM) 87.8% | viability, T/C [1] 75.4% | viability, T/C [2] 69% | viability, T/C (second compound 0.1 µM, first compound 0.000316 µM) 99.7% | viability, T/C (second compound 0.1 µM, first compound 0.001 µM) 106% | viability, T/C (second compound 0.1 µM, first compound 0.00316 µM) 70.9% | viability, T/C (second compound 0.1 µM, first compound 0.01 µM) 73.4% | viability, T/C [7] 74.1% | viability, T/C [8] 72.2% | viability, T/C (second compound 0.316 µM, first compound 0.000316 µM) 90% | viability, T/C (second compound 0.316 µM, first compound 0.001 µM) 94.7% | viability, T/C (second compound 0.316 µM, first compound 0.00316 µM) 70.3% | viability, T/C (second compound 0.316 µM, first compound 0.01 µM) 76.7% | viability, T/C [13] 64.9% | viability, T/C [14] 70% | viability, T/C (second compound 1 µM, first compound 0.000316 µM) 85.7% | viability, T/C (second compound 1 µM, first compound 0.001 µM) 77.8% | viability, T/C (second compound 1 µM, first compound 0.00316 µM) 89% | viability, T/C (second compound 1 µM, first compound 0.01 µM) 84.2% | viability, T/C [19] 77.7% | viability, T/C [20] 54.1% | viability, T/C (second compound 3.16 µM, first compound 0.000316 µM) 79.9% | viability, T/C (second compound 3.16 µM, first compound 0.001 µM) 85.9% | viability, T/C (second compound 3.16 µM, first compound 0.00316 µM) 90.3% | viability, T/C (second compound 3.16 µM, first compound 0.01 µM) 82.4% | viability, T/C [25] 76.8% | viability, T/C [26] 76.5% | viability, T/C (second compound 10 µM, first compound 0.000316 µM) 89.7% | viability, T/C (second compound 10 µM, first compound 0.001 µM) 71.3% | viability, T/C (second compound 10 µM, first compound 0.00316 µM) 85.2% | viability, T/C (second compound 10 µM, first compound 0.01 µM) 92.3% | viability, T/C [31] 66.9% | viability, T/C [32] 72.2%

CNC(=O)c1ccc(N2C(=S)N(c3ccc(C#N)c(C(F)(F)F)c3)C(=O)C2(C)C)cc1F + CC(Nc1ncnc2nc[nH]c12)c1cc2cccc(Cl)c2c(=O)n1-c1ccccc1
> 10000 nM: IC50 (second compound 0.0316 µM) | IC50 (second compound 0.1 µM) | IC50 (second compound 0.316 µM) | IC50 (second compound 1 µM) | IC50 (second compound 3.16 µM) | IC50 (second compound 10 µM)
inactive: viability, T/C [1] 106% | viability, T/C [2] 92.8% | viability, T/C [3] 88.1% | viability, T/C [4] 94.5% | viability, T/C [5] 79.7% | viability, T/C [6] 63.6% | viability, T/C [7] 101% | viability, T/C [8] 81% | viability, T/C [9] 96.5% | viability, T/C [10] 76.3% | viability, T/C [11] 80.8% | viability, T/C [12] 83.9% | viability, T/C [13] 102% | viability, T/C [14] 90.1% | viability, T/C [15] 92.6% | viability, T/C [16] 80.5% | viability, T/C [17] 71.7% | viability, T/C [18] 52.6% | viability, T/C [19] 81.5% | viability, T/C [20] 95.7% | viability, T/C [21] 96.5% | viability, T/C [22] 77.4% | viability, T/C [23] 78.2% | viability, T/C [24] 68.3% | viability, T/C [25] 107% | viability, T/C [26] 76.6% | viability, T/C [27] 104% | viability, T/C [28] 87.6% | viability, T/C [29] 80.8% | viability, T/C [30] 68.4% | viability, T/C [31] 85.7% | viability, T/C [32] 97.3% | viability, T/C [33] 93.3% | viability, T/C [34] 95.6% | viability, T/C [35] 60.9% | viability, T/C [36] 58.3%
